Assay results published in article PMC12452389, “Arginine-Derived Cationic Surfactants Containing Phenylalanine and Tryptophan: Evaluation of Antifungal Activity, Biofilm Eradication, Cytotoxicity, and Ecotoxicity” (Journal of Xenobiotics, 2025).
Like-named read-outs stand apart in the source and are kept apart here.

Legend:
cmc by conductivity = assay type: physicochemical; details: conductivity measurements; BAC mixture C12 (70%) and C14 (30%)
erythrocytes = assay: Hemolytic activity assay; assay type: cell-based; details: rabbit erythrocytes
Description: Fresh rabbit blood was obtained from the Animal Facility of the CID-CSIC (Research and Development Center, Spanish National Research Council, Barcelona, Spain). Sample collection was conducted in strict compliance with the bioethical guidelines established under Spanish legislation. Erythrocytes were isolated by centrifugation (3000 rpm/10 min). The supernatant was discarded, and the erythrocytes were washed three times with PBS (phosphate-buffered saline, pH 7.4) and then resuspended in PBS at a concentration of 8 × 10^9 cells/mL. Subsequently, varying volumes of a concentrated surfactant solution were added to Eppendorf tubes containing 25 μL of erythrocyte suspension. PBS was then added to bring the total volume to 1 mL. The samples were gently shaken for 10 min at room temperature and centrifuged at 10,000 rpm for 5 min. Hemolysis was evaluated by measuring the absorbance of the supernatant at 540 nm and comparing it to that of a 100% hemolysis control (erythrocytes treated with distilled water). The HC50, defined as the surfactant concentration that induces 50% hemolysis, was determined from the concentration–response curves: % hemolysis= Abstest compound/AbsBasal haemolytic activity ×100

[1] = test system: Candida tropicalis ATCC 7349; assay: MIC broth microdilution; assay type: cell-based; details: C. tropicalis
Description: (§1) The antimicrobial activity of these compounds was assessed against selected yeast and bacterial strains: Candida albicans ATCC 90028 (CA9), Candida rugosa ATCC 10571 (CR), Candida glabrata ATCC 66032 (CG), Candida parapsilosis ATCC 22019 (CP), Candida tropicalis ATCC 7349 (CT), Candida auris ATCC 21092 (CA), and Cyberlindnera jadinii ATCC 60459. Frozen yeast stocks were plated on Sabouraud agar (SBA) and incubated at 30 °C for 24 h. Three to four colonies from each strain were then suspended in RPMI 1640 (Roswell Park Memorial Institute medium, Sigma- Aldrich, Merck, Darmstadt, Germany) to prepare bacterial dispersions of ~1.5 × 10^6 CFU/mL.
(§2) A broth microdilution assay was used to calculate MIC values. Twofold serially diluted compounds in RPMI 1640 medium (from 256 to 2 μg/mL), were dispensed (100 μL per well) into a 96-well plate. Then, 100 μL of a yeast starter culture was added to each well to reach a final inoculum of 7.5 × 10^5 CFU/mL. Wells containing only nutrient broth without the tested surfactant served as growth controls. Microbial growth was assessed by turbidity, which reflects increases in biomass and cell count. […] To confirm the obtained MICs, 20 μL of 0.015% (w/v) resazurin was dispensed to each well and incubated for 3 h at 30 °C. Metabolic activity was evidenced by a color change from blue to pink, thereby confirming the MIC value.

[2] = test system: Candida glabrata ATCC 66032; assay: MIC broth microdilution; assay type: cell-based; details: C. glabrata
Description: as §1, §2

[3] = test system: Candida albicans ATCC 90028; assay: MIC broth microdilution; assay type: cell-based; details: C. albicans
Description: as §1, §2

[4] = test system: Candida rugosa ATCC 10571; assay: MIC broth microdilution; assay type: cell-based; details: C. rugosa
Description: as §1, §2

[5] = test system: Cyberlindnera jadinii ATCC 60459 (C. jardinii); assay: MIC broth microdilution; assay type: cell-based; details: C. jardinii
Description: as §1, §2

[6] = test system: Candida parapsilosis ATCC 22019; assay: MIC broth microdilution; assay type: cell-based; details: C. parapsilosis
Description: as §1, §2

Candida auris ATCC 21092 = assay: MIC broth microdilution; assay type: cell-based; details: C. auris
Description: as §1, §2

Daphnia magna = assay: Acute toxicity, immobilization test; assay type: in vivo; details: Daphnia magna immobilization, 48 h of exposure; 95% confidence intervals in parentheses
Description: Aquatic toxicity evaluation was performed using Daphnia magna following established protocols. This bioassay method employs laboratory-cultured freshwater microcrustaceans to evaluate surfactant toxicity in aquatic environments. Test organisms were utilized during their initial 24 h life stage to ensure consistency. The endpoint measurement focused on mobility impairment, specifically the loss of swimming capability after gentle stimulation lasting 15 s. Testing conditions included controlled water chemistry parameters: pH maintained at 8.0, calcium-to-magnesium ratio of 4:1, and total hardness of 250 mg/L as CaCO3. All experiments were conducted under dark conditions at 20 °C. The experimental design incorporated ten test concentrations for each surfactant compound, distributed in geometric progression. Each concentration level included 20 Daphnia specimens distributed across four replicate groups of five organisms each. Mobility assessment occurred at 48 h post-exposure, with immobilization percentages plotted against concentration using probability–logarithmic scaling.

[7] = value in parentheses, read-out: MIC

benzalkonium chloride [BAC, reference compound]
cmc (cmc by conductivity): 5.2 mM | HC50 (erythrocytes; 10 min, room temperature): 31 ± 0.3 µg/mL | HC50 (erythrocytes; value in parentheses): 92 ± 0.8 µM | MIC ([1]; RPMI 1640, 24 h, 30 °C): 4 µg/mL | MIC [1, 7]: 12 µM | MIC ([2]; RPMI 1640, 24 h, 30 °C): 8 µg/mL | MIC [2, 7]: 24 µM | MIC ([3]; RPMI 1640, 24 h, 30 °C): 8 µg/mL | MIC [3, 7]: 24 µM | MIC ([4]; RPMI 1640, 24 h, 30 °C): 8 µg/mL | MIC [4, 7]: 24 µM | MIC ([5]; RPMI 1640, 24 h, 30 °C): 16 µg/mL | MIC [5, 7]: 48 µM | MIC ([6]; RPMI 1640, 24 h, 30 °C): 4 µg/mL | MIC [6, 7]: 12 µM | MIC (Candida auris ATCC 21092; RPMI 1640, 24 h, 30 °C): 32 µg/mL | MIC (Candida auris ATCC 21092; [7]): 98 µM | EC50 (Daphnia magna): 0.039 (0.023–0.05) μg/mL
